# In US20260027083A1, “USE OF PPAR AGONIST FOR IMPROVEMENT OF ENERGY METABOLISM” (NOVMETAPHARMA CO., LTD., priority 2022, published 2026):
# Experiments:
# high-fat diet mice [1] = assay: High-fat diet mice: organ weights; type: in vivo, C57BL/6J mice; conditions: 5 mg/kg/day oral, 60% HFD, vs HFD-V, FIG. 9
# Procedure: (§1) The care and use of experimental animals were carried out with the approval of the Institutional Animal Care and Use Committee of Pohang University of Science and Technology. C57BL/6J mice were purchased from Japan SLC, Inc. 50 four-week-old male C57/BL/6J mice were acclimated for 2 weeks. The mice were randomly divided and orally administered with vehicle or 5 mg/kg/day of D6 or WY14643 for 13 weeks (oral gavage), and obesity was induced by a 60% high-fat diet (#D12492, Research diets, NJ, USA). Body weights and food intakes were measured weekly from 6 weeks of age, and after 16 weeks of age, adipose tissue and muscle volumes were measured using a Trimodality imaging system.
# (§2) To confirm a metabolic disease inhibitory effect of the compound represented by Chemical Formula 1 through animal experiments, mice were acclimated for 2 weeks, and then obesity was induced by feeding a 60% high fat diet (HFD) and orally administered with vehicle or 5 mg/kg/day of the compound represented by Chemical Formula 1 (D6) or WY14643 for 13 weeks. Experiments such as IP-GTT, IP-ITT, and micro-CT were performed at the week 10 of drug administration (FIG. 5).
# [2] = biological target: T1, His-tagged recombinant human PPARα ligand binding domain (Homo sapiens, UniProt Q07869); assay: CNBr-bead conjugation (pull-down) assay, hPPARα-LBD; conditions: CNBr-coupled drug, positive control WY14643, FIG. 2
# T1 construct: made in house; host or cells: E. coli (DE3, Rosetta)
# T1 sequence (Q07869 239-466 limits assumed): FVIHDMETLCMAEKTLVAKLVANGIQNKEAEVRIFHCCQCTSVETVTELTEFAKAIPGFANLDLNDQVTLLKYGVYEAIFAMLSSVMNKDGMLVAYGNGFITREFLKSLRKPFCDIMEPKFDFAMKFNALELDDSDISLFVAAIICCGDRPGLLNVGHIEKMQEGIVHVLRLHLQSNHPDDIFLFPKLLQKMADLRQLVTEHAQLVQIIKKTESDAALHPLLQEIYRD
# Procedure: A compound of the present invention represented by Chemical Formula 1 was synthesized by DAEJUNG Chemicals & Metals (Gyeonggi-do, Korea) (indicated as ‘D6’ in the drawing). WY14643, GW501516, and rosiglitazone were purchased from Sigma-Aldrich (St. Louis, MO, USA). The compounds were dissolved in dimethyl sulfoxide (DMSO), diluted in a culture solution, and used in the experiment. Cyanogen bromide (CNBr)-activated Sepharose 4B was purchased from Sigma-Aldrich (St. Louis, MO, USA). His-tagged recombinant human PPAR-ligand binding domain (LBD) was expressed in E. coli (DE3, Rosetta) and then purified and used. A His antibody was purchased from Cell Signaling Technology (Danvers, Massachusetts, USA). 3-Isobutyl-1-methylxanthine (IBMX), dexamethasone, bovine pancreatic insulin, and Oil Red O were purchased from Sigma-Aldrich (St. Louis, MO, USA). A PRO-PREP™ Protein Extraction Solution was purchased from iNtRON Biotechnology (iNtRON Biotech., Korea). […]
# 100 mg of CNBr-activated Sepharose 4B was added to an e-tube, and then the beads were activated by rotating with 1 ml of 1 mM HCl for 10 minutes at room temperature. […] Each e-tube was added with the drug and rotated overnight at 4° C., at which time the concentration was measured to be 20 μM. […] The supernatant was completely removed, and the pellet was detected by Western blotting. […]
# high-fat diet mice [3] = assay: High-fat diet mice: micro-CT adipose tissue volume; type: in vivo, C57BL/6J mice; conditions: 5 mg/kg/day oral, 60% HFD, vs control group, FIGS. 7 and 8
# Procedure: as §1, §2
# high-fat diet mice [4] = assay: Histology of adipose tissues of high-fat diet mice (H&E); type: in vivo, C57BL/6J mice; conditions: 5 mg/kg/day oral, 60% HFD
# Procedure: as §1
# Mouse tissues were fixed with 10% formalin solution (Sigma-Aldrich, St. Louis, MO, USA), and paraffin-embedded tissues were segmented and stained with hematoxylin and eosin (H&E) staining and Sirius Red staining (IHC world, Woodstock, USA).
# To observe the effects of the compound represented by Chemical Formula 1 on metabolic diseases, biopsy was performed on adipose tissues of high-fat diet mice.
# high-fat diet mice [5] = assay: Intraperitoneal insulin tolerance test (IP-ITT) in high-fat diet mice; type: in vivo, C57BL/6J mice; conditions: 5 mg/kg/day oral, 60% HFD, insulin 0.75 U/kg i.p. after 3 h fasting, FIG. 11
# Procedure: as §1
# An insulin tolerance test (ITT) was performed on mice after 17 weeks of age after fasting for 3 hours and intraperitoneal insulin administration at 0.75 U/kg body weight. The blood glucose levels were measured at 0, 15, 30, 45, 60 and 90 minutes after tail vein injection.
# (§3) To confirm a metabolic disease inhibitory effect of the compound represented by Chemical Formula 1 through animal experiments, mice were acclimated for 2 weeks, and then obesity was induced by feeding a 60% high fat diet (HFD) and orally administered with vehicle or 5 mg/kg/day of the compound represented by Chemical Formula 1 (D6) or WY14643 for 13 weeks. […]
# high-fat diet mice [6] = assay: Intraperitoneal glucose tolerance test (IP-GTT) in high-fat diet mice; type: in vivo, C57BL/6J mice; conditions: 5 mg/kg/day oral, 60% HFD, glucose 2 g/kg i.p. after 16 h fasting, FIG. 10
# Procedure: as §1
# A glucose tolerance test (GTT) was performed on mice after 16 weeks of age after fasting for 16 hours and intraperitoneal glucose administration at 2 g/kg body weight. The blood glucose levels were measured at 0, 15, 30, 45, 60, 90, and 120 minutes after tail vein injection.
# as §3
smiles,measurement,setting,value
"COc1ccc(-c2cc(=O)oc3c(C)c(OC(=O)[C@H](Cc4c[nH]c5ccccc45)NC(=O)OC(C)(C)C)ccc23)cc1 [Chemical Formula 1, [4-(4-methoxyphenyl)-8-methyl-2-oxochromen-7-yl] (2S)-3-(1H-indol-3-yl)-2-[(2-methylpropan-2-yl)oxycarbonylamino]propanoate]",epididymal white adipose tissue (eWAT) weight,high-fat diet mice [1],reduced
same,liver weight,high-fat diet mice [1],reduced
same,"conjugation (binding) to hPPARα-LBD, Western blotting",[2],as much potently as a PPAR agonist used as a positive control
same,volume of adipose tissue (micro-CT),high-fat diet mice [3],significantly reduced
same,adipocyte sizes in adipose tissue (H&E staining),high-fat diet mice [4]; FIG. 14,reduced
same,"adipocyte size distribution, brown adipose tissue (BAT)",high-fat diet mice [4]; FIG. 15,reducing adipocyte sizes
same,"adipocyte size distribution, epididymal white adipose tissue (eWAT)",high-fat diet mice [4]; FIG. 15,reducing adipocyte sizes
same,"adipocyte size distribution, inguinal WAT (iWAT)",high-fat diet mice [4]; FIG. 15,reducing adipocyte sizes
same,insulin resistance (IP-ITT),high-fat diet mice [5],improved
same,glucose tolerance (IP-GTT),high-fat diet mice [6],improved
